As a reminder, the pIC50 is −log10 of the IC50, conventionally taken in molar units.

Drawing on patent publication US10273267B2, “Beta-hairpin peptidomimetics as selective elastase inhibitors” (POLYPHOR AG, priority 2013, dated 2019), this text covers IC50, hNE/PPE selectivity and hNE/hPr3 selectivity for nine compounds.

Common to all, as to format: biochemical
In assay [1] the target is T1, human neutrophil elastase (Homo sapiens, UniProt P08246).
T1 construct: purchased Serva Electrophoresis, Germany
T1 sequence (P08246 30-267): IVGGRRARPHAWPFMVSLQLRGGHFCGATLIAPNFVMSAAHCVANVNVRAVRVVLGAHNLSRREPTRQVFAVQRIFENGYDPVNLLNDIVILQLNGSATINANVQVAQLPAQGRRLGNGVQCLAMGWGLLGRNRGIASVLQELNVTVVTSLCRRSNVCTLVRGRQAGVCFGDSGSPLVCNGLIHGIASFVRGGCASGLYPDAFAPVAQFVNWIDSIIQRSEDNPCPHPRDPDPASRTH
The experiment in a line: Inhibition of human neutrophil elastase (hydrolysis of MeOSuc-AAPV-pNA). To be noted: substrate MeOSuc-AAPV-pNA 0.3 mM, enzyme 10 nM, 37° C., pH 8; read-out: Human neutrophil elastase (hNE) IC50. On the procedure: 2.2 Inhibition of Human Neutrophil Elastase
The ability of the peptides of the invention to inhibit the hydrolysis activity of human neutrophil elastase (Serva Electrophoresis, Germany) using the synthetic tetrapeptidic substrate MeOSuc-AAPV-pNA (Bachem, Switzerland) was determined as follows:
The above substrate (0.3 mM) and human neutrophil elastase (10 nM) were incubated at 37° C. with serial dilutions of the peptides (1% DMSO final) in assay buffer (50 mM Tris, pH 8, 300 mM NaCl, 0.01% Tween20). The release of pNA was followed by monitoring the change in absorbance at 405 nm for 30 minutes. Control assays with the same assay set-up as above, but without peptide, ran linearly. The dose-response data were fitted to the 4-parameter Hill equation providing the IC50 value using Graphpad (Prism 5).

Assay [2] has as its target T2, porcine pancreatic elastase (Sus scrofa, UniProt P00772).
T2 construct: purchased Sigma, USA
Nature of the assay: Inhibition of porcine pancreatic elastase (hydrolysis of MeOSuc-AAA-pNA). The note with it: for hNE/PPE selectivity: ratio of PPE IC50 to hNE IC50; for pIC50: substrate MeOSuc-AAA-pNA 1 mM, enzyme 15 nM, 37° C., pH8, read-out: Porcine pancreatic elastase (PPE) IC50. On the procedure:
2.3 Inhibition of Porcine Pancreatic Elastase
The ability of the peptides of the invention to inhibit the hydrolysis activity of porcine pancreatic elastase (Sigma, USA) using the synthetic tripeptidic substrate MeOSuc-AAA-pNA (Bachem, Switzerland) was determined as follows:
The above substrate (1 mM) and […] porcine pancreatic elastase (15 nM) were incubated at 37° C. with serial dilutions of the peptides (0.5% DMSO final) in assay buffer (50 mM Tris, pH8, 100 mM NaCl, 0.01% Tween20). The release of pNA was followed by monitoring the change in absorbance at 405 nm for 30 minutes. Control assays with the same assay set-up as above, but without peptide, ran linearly. The dose-response data were fitted to the 4-parameter Hill equation providing the IC50 value using Graphpad (Prism 5).

Another assay concerns the target T3, human proteinase 3 (Homo sapiens, UniProt P24158).
T3 construct: purchased Elastin Products Company, USA
T3 sequence (P24158 28-248): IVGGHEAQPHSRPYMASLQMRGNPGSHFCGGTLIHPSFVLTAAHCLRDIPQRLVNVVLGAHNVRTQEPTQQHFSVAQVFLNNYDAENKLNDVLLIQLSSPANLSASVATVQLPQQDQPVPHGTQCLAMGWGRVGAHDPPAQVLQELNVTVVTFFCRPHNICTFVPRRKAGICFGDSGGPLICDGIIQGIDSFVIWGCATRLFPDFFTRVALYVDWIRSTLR
Nature of the assay: Inhibition of human proteinase 3 (substrate Boc-Ala-Ala-Nva-SBzl). The note with it: for hNE/hPr3 selectivity: ratio of hPr3 IC50 to hNE IC50; for pIC50: substrate Boc-Ala-Ala-Nva-SBzl 1 mM, enzyme 10 nM, 37° C., pH7.4, read-out: Human proteinase 3 (hPr3) IC50. On the procedure: 2.4 Inhibition of Human Proteinase 3
The inactivation of human proteinase 3 (Elastin Products Company, USA) by the peptides of the invention using synthetic tripeptidic substrate Boc-Ala-Ala-Nva-SBzl (Elastin Products Company, USA) was determined as follows:
The above substrate (1 mM), 4,4′-dithiodipyridine (250 μM) and human proteinase 3 (10 nM) were incubated at 37° C. with serial dilutions of the peptides (0.5% DMSO final) in assay buffer (50 mM Tris, pH7.4, 150 mM NaCl, 0.01% Tween20). The reaction process was followed by monitoring the change in absorbance at 340 nm for 30 minutes. Control assays with the same assay set-up as above, but without peptide, ran linearly. The dose-response data were fitted to the 4-parameter Hill equation providing the IC50 value using Graphpad (Prism 5).

The structures appear in SMILES notation. pIC50: −log10 of the molar value. Where a SMILES comes first, the peptide text is derived from it. [ ]: non-standard residue; d: D form. The star is where a group is joined. Oic = O=C(O)[C@@H]1C[C@@H]2CCCC[C@@H]2N1; Gly(octyl) = CCCCCCCC[C@H](N)C(=O)O; AllylGly = C=CC[C@H](N)C(=O)O; Octanoyl = CCCCCCCC(=O)*; Dab = NCC[C@H](N)C(=O)O Some results are limits rather than exact numbers.

T2 sequence (P00772 27-266): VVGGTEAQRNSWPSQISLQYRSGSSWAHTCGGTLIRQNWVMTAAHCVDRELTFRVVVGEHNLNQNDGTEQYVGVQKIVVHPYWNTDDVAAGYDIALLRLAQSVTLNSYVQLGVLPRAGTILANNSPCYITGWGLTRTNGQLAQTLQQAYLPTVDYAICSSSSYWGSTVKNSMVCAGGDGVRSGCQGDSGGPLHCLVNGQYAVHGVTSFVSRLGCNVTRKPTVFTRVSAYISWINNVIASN

`CCCCCCCC(=O)NCC[C@@H]1NC(=O)[C@@H]2CCCN2C(=O)[C@H]2CCCN2C(=O)[C@H]([C@@H](C)O)NC(=O)[C@H](CCCCN)NC(=O)[C@H](CCC(N)=O)NC(=O)[C@@H]2CCCN2C(=O)[C@@H]2CCCN2C(=O)[C@H]([C@@H](C)CC)NC(=O)[C@H](CO)NC(=O)[C@H](C)NC(=O)[C@H]([C@@H](C)O)NC(=O)[C@H](CCC(=O)O)NC1=O` [Example 15, Cyclo(-Dab(Octanoyl)-Glu-Thr-Ala-Ser-Ile-Pro-Pro-Gln-Lys-Thr-^DPro-Pro-)] (cyclo([Dab](Octanoyl)ETASIPPQKT[dP]P)): the pIC50 in assay [1] is 7.72. In addition, in assay [2], the hNE/PPE selectivity was 4859 and the pIC50 is 4.03. Moreover, at human proteinase 3, the hNE/hPr3 selectivity came to 2366 and the pIC50 is 4.34.

`CC[C@H](C)[C@@H]1NC(=O)[C@H](CO)NC(=O)[C@H](C)NC(=O)[C@H]([C@@H](C)O)NC(=O)[C@H](CCC(=O)O)NC(=O)[C@H](CCCNC(=N)N)NC(=O)[C@@H]2CCCN2C(=O)[C@H]2CCCN2C(=O)[C@H]([C@@H](C)O)NC(=O)[C@H](CCCCN)NC(=O)[C@H](CCC(N)=O)NC(=O)[C@@H]2C[C@@H]3CCCC[C@@H]3N2C(=O)[C@@H]2CCCN2C1=O` [Example 16, Cyclo(-Arg-Glu-Thr-Ala-Ser-Ile-Pro-Oic-Gln-Lys-Thr-^DPro-Pro-)] (cyclo(RETASIP[Oic]QKT[dP]P)): the pIC50 in assay [1] was 7.82. In assay [2], the hNE/PPE selectivity is reported as above 6667 and the pIC50 is below 4.00. Besides, at human proteinase 3, the hNE/hPr3 selectivity is given as above 6667 and the pIC50 is below 4.00.

On to `C=CC[C@@H]1NC(=O)[C@H]([C@@H](C)O)NC(=O)[C@H](CCC(=O)O)NC(=O)[C@H](CCC(=O)N[C@@H](Cc2ccccc2)C(=O)O)NC(=O)[C@@H]2CCCN2C(=O)[C@H]2CCCN2C(=O)[C@H](Cc2ccc(O)cc2)NC(=O)[C@H](CCCCN)NC(=O)[C@H](CCC(N)=O)NC(=O)[C@@H]2CCCN2C(=O)[C@@H]2CCCN2C(=O)[C@H]([C@@H](C)CC)NC(=O)[C@H](CO)NC1=O` [Example 17, Cyclo(-Glu(Phe)-Glu-Thr-AllylGly-Ser-Ile-Pro-Pro-Gln-Lys-Tyr-^DPro-Pro-)] (cyclo(E(Phe)ET[AllylGly]SIPPQKY[dP]P)), for which the pIC50 in assay [1] is 7.82. In assay [2], the hNE/PPE selectivity stood at 2080 and the pIC50 was 4.51. Also, on human proteinase 3, the hNE/hPr3 selectivity came out at 4013 and the negative logarithm of the IC50 (pIC50) is 4.22.

`CC[C@H](C)[C@@H]1NC(=O)[C@H](CO)NC(=O)[C@H](C)NC(=O)[C@H]([C@@H](C)O)NC(=O)[C@H](CCC(=O)O)NC(=O)[C@H](CCC(=O)N[C@@H](Cc2ccccc2)C(=O)O)NC(=O)[C@@H]2CCCN2C(=O)[C@H]2CCCN2C(=O)[C@H](Cc2ccc(O)cc2)NC(=O)[C@H](CCCCN)NC(=O)[C@H](CCC(N)=O)NC(=O)[C@@H]2CCCN2C(=O)[C@@H]2CCCN2C1=O` [Example 18, Cyclo(-Glu(Phe)-Glu-Thr-Ala-Ser-Ile-Pro-Pro-Gln-Lys-Tyr-^DPro-Pro-)] (cyclo(E(Phe)ETASIPPQKY[dP]P)): the pIC50 in assay [1] is 7.80. Moreover, in assay [2], the hNE/PPE selectivity is given as 4660 and the pIC50 is 4.13. Further, on human proteinase 3, the hNE/hPr3 selectivity is 2906 and the pIC50 was 4.34.

Take `C=CC[C@@H]1NC(=O)[C@H]([C@@H](C)O)NC(=O)[C@H](CCC(=O)O)NC(=O)[C@H](CCC(=O)N[C@@H](Cc2ccccc2)C(=O)O)NC(=O)[C@@H]2CCCN2C(=O)[C@H]2CCCN2C(=O)[C@H]([C@@H](C)O)NC(=O)[C@H](CCCCN)NC(=O)[C@H](CCC(N)=O)NC(=O)[C@@H]2CCCN2C(=O)[C@@H]2CCCN2C(=O)[C@H]([C@@H](C)CC)NC(=O)[C@H](CO)NC1=O` [Example 19, Cyclo(-Glu(Phe)-Glu-Thr-AllylGly-Ser-Ile-Pro-Pro-Gln-Lys-Thr-^DPro-Pro-)] (cyclo(E(Phe)ET[AllylGly]SIPPQKT[dP]P)): the pIC50 in assay [1] was 7.48; in assay [2] it was below 4.00; on human proteinase 3 it was below 4.00. Further, the hNE/PPE selectivity in assay [2] is above 3030. Moreover, the hNE/hPr3 selectivity at human proteinase 3 is on record as above 3030.

For the compound `CCCCCCCC[C@@H]1NC(=O)[C@H](C)NC(=O)[C@@H](C)NC(=O)[C@H]([C@@H](C)O)NC(=O)[C@H](CCCCN)NC(=O)[C@H](CCC(N)=O)NC(=O)[C@@H]2CCCN2C(=O)[C@@H]2CCCN2C(=O)[C@H]([C@@H](C)CC)NC(=O)[C@H](CO)NC(=O)[C@H](C)NC(=O)[C@H]([C@@H](C)O)NC(=O)[C@H](CCC(=O)O)NC1=O` [Example 20, Cyclo(-OctGly-Glu-Thr-Ala-Ser-Ile-Pro-Pro-GI n-Lys-Thr-^DAla-Ala-)] (cyclo([Gly(octyl)]ETASIPPQKT[dA]A)), the pIC50 in assay [1] is 7.88. Also, in assay [2], the hNE/PPE selectivity amounted to 2128 and the pIC50 is 4.55. Besides, at human proteinase 3, the hNE/hPr3 selectivity turned out to be 669 and the negative-log IC50 (pIC50) is 5.05.

Take `CCCCCCCC[C@@H]1NC(=O)[C@H](Cc2ccc(O)cc2)NC(=O)[C@@H](C(C)C)NC(=O)[C@H]([C@@H](C)O)NC(=O)[C@H](CCCCN)NC(=O)[C@H](CCC(N)=O)NC(=O)[C@@H]2CCCN2C(=O)[C@@H]2CCCN2C(=O)[C@H]([C@@H](C)CC)NC(=O)[C@H](CO)NC(=O)[C@H](C)NC(=O)[C@H]([C@@H](C)O)NC(=O)[C@H](CCC(=O)O)NC1=O` [Example 21, Cyclo(-OctGly-Glu-Thr-Ala-Ser-Ile-Pro-Pro-GI n-Lys-Thr-^DVal-Tyr-)] (cyclo([Gly(octyl)]ETASIPPQKT[dV]Y)): the pIC50 in assay [1] is 7.89. In assay [2], the hNE/PPE selectivity amounted to 822 and the negative logarithm of the IC50 (pIC50) was 4.97. In addition, on human proteinase 3, the hNE/hPr3 selectivity is reported as 1008 and the pIC50 is 4.89.

In the case of `CCCCCCCC[C@@H]1NC(=O)[C@H](CCCCN)NC(=O)[C@@H](C(C)C)NC(=O)[C@H]([C@@H](C)O)NC(=O)[C@H](CCCCN)NC(=O)[C@H](CCC(N)=O)NC(=O)[C@@H]2CCCN2C(=O)[C@@H]2CCCN2C(=O)[C@H]([C@@H](C)CC)NC(=O)[C@H](CO)NC(=O)[C@H](C)NC(=O)[C@H]([C@@H](C)O)NC(=O)[C@H](CCC(=O)O)NC1=O` [Example 22, Cyclo(-OctGly-Glu-Thr-Ala-Ser-Ile-Pro-Pro-Gln-Lys-Thr-^DVal-Lys-)] (cyclo([Gly(octyl)]ETASIPPQKT[dV]K)), the pIC50 in assay [1] was 7.91. In assay [2], the hNE/PPE selectivity worked out at 4847 and the pIC50 was 4.22. For the same compound, at human proteinase 3, the hNE/hPr3 selectivity is 5677 and the pIC50 is 4.15.

`CCCCCCCC[C@@H]1NC(=O)[C@H](C(C)C)NC(=O)[C@@H](Cc2ccc(O)cc2)NC(=O)[C@H]([C@@H](C)O)NC(=O)[C@H](CCCCN)NC(=O)[C@H](CCC(N)=O)NC(=O)[C@@H]2CCCN2C(=O)[C@@H]2CCCN2C(=O)[C@H]([C@@H](C)CC)NC(=O)[C@H](CO)NC(=O)[C@H](C)NC(=O)[C@H]([C@@H](C)O)NC(=O)[C@H](CCC(=O)O)NC1=O` [Example 23, Cyclo(-OctGly-Glu-Thr-Ala-Ser-Ile-Pro-Pro-Gln-Lys-Thr-^DTyr-Val-)] (cyclo([Gly(octyl)]ETASIPPQKT[dY]V)): the negative-log IC50 (pIC50) in assay [1] is 8.22; in assay [2], 4.99; at human proteinase 3, 4.99. For the same compound, in assay [2], the hNE/PPE selectivity is recorded as 1717. Moreover, the hNE/hPr3 selectivity on human proteinase 3 amounted to 1717.
